Columns and labels:
Test in all cases: Large panel kinase profiling
Format in all cases: biochemical
Conditions in all cases: 1 μM test article, 1 mM ATP
[1] = molecular target: T1, BTK (Homo sapiens, UniProt Q06187)
T1 construct: purchased Cama
In short: (§1)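 At 30° C., kinases turned over a CSox-Sensor peptide substrate with 1 mM ATP while 1 μM test article was present. Progress was followed by kinetic fluorescence readings.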

[2] = molecular target: ALK (Homo sapiens, UniProt Q9UM73)
In short: as §1

[3] = molecular target: T2, MAP3K2 (Homo sapiens, UniProt Q9Y2U5)
T2 construct: AssayQuant Technologies, Inc. (service provider)
T2 sequence (Q9Y2U5 1-619): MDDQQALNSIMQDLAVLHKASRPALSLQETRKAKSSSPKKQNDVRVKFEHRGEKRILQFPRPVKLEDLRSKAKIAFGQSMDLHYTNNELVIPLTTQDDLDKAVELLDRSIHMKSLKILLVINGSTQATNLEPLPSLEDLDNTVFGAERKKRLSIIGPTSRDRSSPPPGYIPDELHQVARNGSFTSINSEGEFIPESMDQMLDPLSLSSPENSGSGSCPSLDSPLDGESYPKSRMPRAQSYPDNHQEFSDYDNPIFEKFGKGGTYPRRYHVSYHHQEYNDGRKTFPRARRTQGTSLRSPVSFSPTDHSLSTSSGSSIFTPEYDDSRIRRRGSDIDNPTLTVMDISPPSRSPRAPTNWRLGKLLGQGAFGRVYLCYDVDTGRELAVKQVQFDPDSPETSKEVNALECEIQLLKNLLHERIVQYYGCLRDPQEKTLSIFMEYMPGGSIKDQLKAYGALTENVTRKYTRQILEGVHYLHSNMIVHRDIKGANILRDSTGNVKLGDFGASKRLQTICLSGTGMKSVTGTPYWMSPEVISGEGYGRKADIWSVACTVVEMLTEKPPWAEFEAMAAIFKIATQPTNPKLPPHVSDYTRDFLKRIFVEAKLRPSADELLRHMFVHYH
In short: as §1

[4] = molecular target: T3, CSNK1G1/CK1G1 (Homo sapiens, UniProt Q9HCP0)
T3 construct: AssayQuant Technologies, Inc. (service laboratory)
T3 sequence (Q9HCP0 whole entry): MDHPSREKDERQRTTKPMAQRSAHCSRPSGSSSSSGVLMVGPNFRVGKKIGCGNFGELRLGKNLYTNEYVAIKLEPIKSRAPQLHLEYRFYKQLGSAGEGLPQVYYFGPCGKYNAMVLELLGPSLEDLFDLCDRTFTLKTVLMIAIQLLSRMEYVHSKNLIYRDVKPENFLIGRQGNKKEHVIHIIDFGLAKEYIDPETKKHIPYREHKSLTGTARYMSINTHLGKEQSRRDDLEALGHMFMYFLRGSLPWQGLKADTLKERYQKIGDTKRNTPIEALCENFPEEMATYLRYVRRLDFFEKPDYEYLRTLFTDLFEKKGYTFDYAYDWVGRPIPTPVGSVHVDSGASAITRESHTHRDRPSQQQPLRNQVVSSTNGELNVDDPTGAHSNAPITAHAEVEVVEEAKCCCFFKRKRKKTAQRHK
In short: as §1

[5] = molecular target: T4, CDK2/A2 (Homo sapiens, UniProt P24941)
T4 construct: AssayQuant Technologies, Inc. (ran the panel)
In short: as §1

[6] = molecular target: T5, PRKCZ/PKCZ (Homo sapiens, UniProt Q05513)
T5 sequence (Q05513 1-592): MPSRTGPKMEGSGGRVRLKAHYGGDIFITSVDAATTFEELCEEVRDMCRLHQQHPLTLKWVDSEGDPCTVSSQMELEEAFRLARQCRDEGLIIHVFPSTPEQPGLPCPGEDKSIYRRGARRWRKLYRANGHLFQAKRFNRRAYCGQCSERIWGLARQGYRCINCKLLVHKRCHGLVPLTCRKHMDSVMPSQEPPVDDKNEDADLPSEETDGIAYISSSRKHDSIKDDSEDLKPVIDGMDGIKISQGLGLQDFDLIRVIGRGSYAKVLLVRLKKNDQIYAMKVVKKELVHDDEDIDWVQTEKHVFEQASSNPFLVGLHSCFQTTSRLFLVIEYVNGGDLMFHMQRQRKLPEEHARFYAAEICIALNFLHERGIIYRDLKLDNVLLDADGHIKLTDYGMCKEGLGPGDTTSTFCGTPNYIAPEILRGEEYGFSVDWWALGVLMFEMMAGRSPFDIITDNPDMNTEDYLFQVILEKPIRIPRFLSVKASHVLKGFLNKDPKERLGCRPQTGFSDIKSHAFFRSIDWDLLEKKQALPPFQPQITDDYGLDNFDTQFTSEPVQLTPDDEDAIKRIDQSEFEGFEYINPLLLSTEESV
In short: as §1

[7] = molecular target: T6, FYNA (Homo sapiens, UniProt P06241)
T6 construct: AssayQuant Technologies, Inc. (service provider)
T6 sequence (P06241 whole entry): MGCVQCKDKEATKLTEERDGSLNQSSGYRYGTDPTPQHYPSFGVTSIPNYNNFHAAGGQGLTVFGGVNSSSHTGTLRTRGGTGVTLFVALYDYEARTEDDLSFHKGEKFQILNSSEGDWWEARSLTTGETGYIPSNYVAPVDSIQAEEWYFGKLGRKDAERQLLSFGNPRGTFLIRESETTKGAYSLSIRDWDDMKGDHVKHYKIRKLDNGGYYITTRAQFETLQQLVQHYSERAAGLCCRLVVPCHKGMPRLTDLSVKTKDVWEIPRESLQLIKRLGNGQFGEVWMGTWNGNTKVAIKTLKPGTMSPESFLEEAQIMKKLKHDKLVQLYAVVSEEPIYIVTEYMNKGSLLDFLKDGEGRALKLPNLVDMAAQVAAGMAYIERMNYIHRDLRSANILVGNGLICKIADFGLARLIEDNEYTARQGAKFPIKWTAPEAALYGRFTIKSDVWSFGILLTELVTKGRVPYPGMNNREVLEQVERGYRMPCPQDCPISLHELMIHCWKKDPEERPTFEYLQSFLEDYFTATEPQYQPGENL
In short: as §1

[8] = molecular target: ROS (Homo sapiens, UniProt P08922)
In short: as §1

[9] = molecular target: T7, MAPK3/ERK1 (Homo sapiens, UniProt P27361)
T7 construct: AssayQuant Technologies, Inc. (service provider)
T7 sequence (P27361 whole entry): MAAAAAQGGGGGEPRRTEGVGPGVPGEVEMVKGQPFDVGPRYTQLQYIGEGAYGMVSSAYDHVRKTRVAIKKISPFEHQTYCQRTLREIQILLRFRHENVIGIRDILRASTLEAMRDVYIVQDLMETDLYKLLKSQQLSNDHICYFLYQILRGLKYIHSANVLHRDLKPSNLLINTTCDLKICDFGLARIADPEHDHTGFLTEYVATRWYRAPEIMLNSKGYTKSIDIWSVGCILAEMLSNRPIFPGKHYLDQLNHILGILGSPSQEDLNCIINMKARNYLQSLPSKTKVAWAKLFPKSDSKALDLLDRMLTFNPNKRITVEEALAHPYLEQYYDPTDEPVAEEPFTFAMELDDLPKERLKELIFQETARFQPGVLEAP
In short: as §1

[10] = molecular target: T8, CAMK4 (Homo sapiens, UniProt Q16566)
T8 construct: AssayQuant Technologies, Inc. (ran the panel)
T8 sequence (Q16566 1-473): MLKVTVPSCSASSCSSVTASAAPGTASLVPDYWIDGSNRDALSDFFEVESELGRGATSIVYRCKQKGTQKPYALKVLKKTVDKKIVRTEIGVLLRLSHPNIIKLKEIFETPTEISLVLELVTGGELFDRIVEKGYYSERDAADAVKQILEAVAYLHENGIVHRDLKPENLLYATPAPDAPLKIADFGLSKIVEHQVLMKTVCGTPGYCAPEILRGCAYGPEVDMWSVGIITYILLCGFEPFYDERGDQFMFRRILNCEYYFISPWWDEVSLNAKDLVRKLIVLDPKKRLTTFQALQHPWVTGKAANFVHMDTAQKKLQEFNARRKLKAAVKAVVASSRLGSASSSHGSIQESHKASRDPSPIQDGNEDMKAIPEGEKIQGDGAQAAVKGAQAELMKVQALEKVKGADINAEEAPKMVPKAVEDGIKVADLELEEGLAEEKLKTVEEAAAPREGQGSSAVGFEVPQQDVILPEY
In short: as §1

ALK, sequence (Q9UM73 19-1620): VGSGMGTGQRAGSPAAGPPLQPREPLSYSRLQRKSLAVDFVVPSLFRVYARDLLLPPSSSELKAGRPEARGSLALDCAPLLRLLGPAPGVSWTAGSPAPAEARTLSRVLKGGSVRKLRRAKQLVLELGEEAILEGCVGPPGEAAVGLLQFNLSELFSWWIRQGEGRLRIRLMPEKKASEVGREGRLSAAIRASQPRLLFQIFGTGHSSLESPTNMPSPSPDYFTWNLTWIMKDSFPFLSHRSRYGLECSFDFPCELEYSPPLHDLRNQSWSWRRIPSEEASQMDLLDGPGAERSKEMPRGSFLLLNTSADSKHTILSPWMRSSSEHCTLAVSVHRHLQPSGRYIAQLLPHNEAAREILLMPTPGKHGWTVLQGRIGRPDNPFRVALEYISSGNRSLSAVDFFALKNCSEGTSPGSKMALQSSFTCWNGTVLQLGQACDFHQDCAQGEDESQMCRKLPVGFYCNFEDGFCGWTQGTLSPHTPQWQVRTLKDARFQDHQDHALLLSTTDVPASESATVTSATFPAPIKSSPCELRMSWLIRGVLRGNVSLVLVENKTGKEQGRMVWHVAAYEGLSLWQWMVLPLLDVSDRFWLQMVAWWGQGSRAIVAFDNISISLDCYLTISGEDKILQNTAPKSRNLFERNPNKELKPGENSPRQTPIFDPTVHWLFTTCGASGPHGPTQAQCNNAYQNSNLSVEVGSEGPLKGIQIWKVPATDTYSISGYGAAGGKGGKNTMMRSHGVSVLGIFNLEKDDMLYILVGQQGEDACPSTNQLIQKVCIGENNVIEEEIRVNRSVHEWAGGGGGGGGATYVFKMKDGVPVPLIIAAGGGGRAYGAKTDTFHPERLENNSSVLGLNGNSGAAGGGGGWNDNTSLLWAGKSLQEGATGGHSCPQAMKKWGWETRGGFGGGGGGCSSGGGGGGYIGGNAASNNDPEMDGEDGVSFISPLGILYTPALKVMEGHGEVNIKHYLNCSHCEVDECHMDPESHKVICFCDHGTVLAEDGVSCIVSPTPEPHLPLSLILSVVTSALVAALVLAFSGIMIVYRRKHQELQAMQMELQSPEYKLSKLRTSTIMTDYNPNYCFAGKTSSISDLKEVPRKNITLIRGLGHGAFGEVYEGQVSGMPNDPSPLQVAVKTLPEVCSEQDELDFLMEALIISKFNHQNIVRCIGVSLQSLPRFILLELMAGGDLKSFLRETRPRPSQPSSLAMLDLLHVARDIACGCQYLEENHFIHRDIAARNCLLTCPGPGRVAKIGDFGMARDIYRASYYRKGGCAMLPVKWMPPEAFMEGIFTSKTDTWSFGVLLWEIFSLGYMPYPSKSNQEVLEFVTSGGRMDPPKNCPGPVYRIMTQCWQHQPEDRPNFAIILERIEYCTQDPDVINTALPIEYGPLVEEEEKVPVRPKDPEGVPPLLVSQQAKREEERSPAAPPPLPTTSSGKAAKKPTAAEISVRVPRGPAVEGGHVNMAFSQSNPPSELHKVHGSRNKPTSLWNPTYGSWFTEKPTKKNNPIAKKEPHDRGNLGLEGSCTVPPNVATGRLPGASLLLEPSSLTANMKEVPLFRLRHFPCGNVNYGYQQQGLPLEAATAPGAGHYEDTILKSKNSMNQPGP
T1 sequence (Q06187 whole entry): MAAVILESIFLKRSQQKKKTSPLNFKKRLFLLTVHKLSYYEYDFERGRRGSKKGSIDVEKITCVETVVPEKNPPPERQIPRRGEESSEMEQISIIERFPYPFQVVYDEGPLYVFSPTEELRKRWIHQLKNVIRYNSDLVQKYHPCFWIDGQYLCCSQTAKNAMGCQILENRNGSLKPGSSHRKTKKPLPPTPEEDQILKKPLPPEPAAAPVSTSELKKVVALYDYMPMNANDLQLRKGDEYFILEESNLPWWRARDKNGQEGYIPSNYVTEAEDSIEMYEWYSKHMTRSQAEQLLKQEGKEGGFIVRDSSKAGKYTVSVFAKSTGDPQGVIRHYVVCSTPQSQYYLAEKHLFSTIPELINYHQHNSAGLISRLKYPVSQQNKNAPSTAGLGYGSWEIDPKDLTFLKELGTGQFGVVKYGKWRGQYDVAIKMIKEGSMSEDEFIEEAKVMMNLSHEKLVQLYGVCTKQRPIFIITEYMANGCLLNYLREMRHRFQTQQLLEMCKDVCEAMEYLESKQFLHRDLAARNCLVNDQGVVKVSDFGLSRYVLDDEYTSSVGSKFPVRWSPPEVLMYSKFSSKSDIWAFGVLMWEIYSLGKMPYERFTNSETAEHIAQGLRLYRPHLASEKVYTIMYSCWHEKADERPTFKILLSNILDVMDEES

SMILES	inhibition at 1 µM [1]	inhibition at 1 µM [2]	inhibition at 1 µM [3]	inhibition at 1 µM [4]	inhibition at 1 µM [5]	inhibition at 1 µM [6]	inhibition at 1 µM [7]	inhibition at 1 µM [8]	inhibition at 1 µM [9]	inhibition at 1 µM [10]
C=CC(=O)N1CCCC(c2c(F)cc(C(N)=O)c3[nH]c4c(c23)CCCCC4)C1 (single isomer, unassigned) [Compound 5-6]	92.8%	-26.4%	-19%	17.2%	-6.3%	-4%	12%	-35.7%	-22.1%	15.7%
C=CC(=O)N1CCC[C@@H](c2c(F)cc(C(N)=O)c3[nH]c4c(c23)CCC4)C1 [Compound 10-2, (S)-8-(1-acryloylpiperidin-3-yl)-7-fluoro-1,2,3,4-tetrahydrocyclo-penta[b]indole-5-carboxamide]	93.8%	-2.7%	15.7%	-2.8%	2.3%	-4.2%	-24.6%	-22%	5.5%	15.3%
C=CC(=O)N1CCC[C@@H](c2c(F)cc(C(N)=O)c3[nH]c4c(c23)CC2(CC4)CC2)C1 [Compound 6-2, (S)-5-(1-acryloylpiperidin-3-yl)-6-fluoro-1,2,4,9-tetrahydrospiro[carbazole-3,1′-cyclopropane]-8-carboxamide]	97.4%	11.7%	-6.6%	14%	5.6%	8.5%	-5.2%	-3.6%	22.7%	26.6%

— patent US20220009920A1 (GB005, Inc., priority 2020, published 2022)
